According to patent US9708265B2, “Urethanes, ureas, amidines and related inhibitors of factor Xa” (priority 2010, dated 2017):

Experiments:
factor Xa = factor Xa (Homo sapiens, UniProt P00742); assay: Activity towards factor Xa in vitro (initial rate of decomposition of substrate S-2222); format: biochemical; details: substrate S-2222 164 μM, room temperature, pH 7.5, 10 min preincubation; Ki calculated from IC50
Description: For some compounds depicted in the above examples, there has been measured a constant of activity of these substances towards the factor Xa in vitro—Ki. The measurements were carried out kinetically, in terms of the initial rate of decomposition of the substrate S-2222 by the protein. The measurements were carried out at room temperature in 2 ml rectangular quartz cuvettes. In the reaction there was used a solution: 50 mM Tris-HCl, 150 mM NaCl, 2.5 mM CaCl2, and 0.1% PEG 6000, pH 7.5, factor Xa […], S-2222 164 μM. The standard least-squares method was used for determining Km for certain concentrations of the protein and substrate. Before the reaction, the protein and the active agent in the solution were under thermostatic control for 10 min; then the substrate was added and the reaction was initiated. The reaction rate was measured with a Specord M80 instrument from a change in the light absorption at a wavelength of 405 nm. The IC50 values were determined from the experimentally obtained dependence of the initial rates on the concentration of the inhibitor (active agent). The Ki values were calculated from the concentrations of the protein, substrate, and inhibitors; the IC50 values, by the method described in (1) Jordan, S. P.; Waxman, L.; Smith, D. E.; Vlasik, G. P. Biochemistry 1990, 29, 11095 and (2) Morrison, J. F. Biochim Biophys. Acta 1969, 185, 269.

human blood plasma = assay: Prothrombin time in human blood plasma in vitro (Diahem P kit); details: 3 min incubation, average of 3 measurements
Description: For some compounds depicted in the above examples, there has been measured the concentration of these compounds in human blood plasma, at which the prothrombin time of plasma is twice as much—2PT. The measurements were carried out with the aid of a Diahem P kit (NPO Renam, www.renam.ru) by a method described in the instruction for users of the kit. The active compound was dissolved in a blood plasma provided in the kit and was incubated for 3 min. The measurements were carried out with a Sysmex CA 50 instrument. For each concentration, there were taken 3 measurements and the result was averaged.

factor Xa, sequence (P00742 235-488 limits assumed): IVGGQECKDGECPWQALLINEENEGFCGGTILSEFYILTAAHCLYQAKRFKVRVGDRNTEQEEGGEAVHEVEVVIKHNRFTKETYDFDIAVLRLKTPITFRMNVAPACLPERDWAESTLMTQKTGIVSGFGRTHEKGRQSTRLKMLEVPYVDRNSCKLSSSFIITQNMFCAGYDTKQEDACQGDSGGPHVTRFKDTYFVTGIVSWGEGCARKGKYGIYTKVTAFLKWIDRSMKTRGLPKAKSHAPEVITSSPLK
factor Xa, sequence (P00742 41-179 partner limits assumed): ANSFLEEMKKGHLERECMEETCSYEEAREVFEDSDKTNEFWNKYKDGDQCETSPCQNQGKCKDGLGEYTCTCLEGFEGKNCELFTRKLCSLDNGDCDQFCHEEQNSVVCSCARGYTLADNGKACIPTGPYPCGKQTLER

Structure (SMILES) | Ki (factor Xa) | 2 × PT (concentration at which the prothrombin time of plasma is twice as much) (human blood plasma)
COc1ccc(NC(=O)c2ccc(N(C)C(C)=N)cc2)c(C(=O)Nc2ccc(Cl)cn2)c1 [Example 4, N-(5-chloropyridine-2-yl)-2-[(4-ethaneimidoyl-methyl-aminophenylcarbonyl)amino]5-methoxybenzamide] | 1 nM | –
CC(=N)N(C)c1cc(F)c(C(=O)Nc2ccc(C)cc2C(=O)Nc2ccc(Cl)cn2)c(OCCCN)c1 [Example 9, N-(5-chloropyridine-2-yl)-2-[4-(ethaneimidoylmethylamino)-2-(3-aminopropoxy)-6-fluorophenylcarbonylamino]-5-methylbenzamide] | 0.4 nM | 0.15 µM
CC(=N)N(C)c1ccc(C(=O)Nc2ccc(C)cc2C(=O)Nc2ccc(Cl)cn2)cc1 [Example 2, N-(5-chloropyridine-2-yl)-2-[(4-ethaneimidoyl-methyl-aminophenylcarbonyl)amino]5-methylbenzamide] | 0.5 nM | –
CNC(=O)N(C)c1ccc(C(=O)Nc2ccc(Cl)cc2C(=O)Nc2ccc(Cl)cn2)c(OCCCN)c1 [Example 20] | 0.2 nM | 1.0 µM
COc1ccc(NC(=O)c2ccc(N(C)C(C)=N)cc2OCCCN)c(C(=O)Nc2ccc(Cl)cn2)c1 [Example 8, N-(5-chloropyridine-2-yl)2-[4(ethaneimidoylmethylamino)-2-(3-aminopropoxy)phenylcarbonyl-amino]-5-methoxybenzamide] | 0.5 nM | 0.2 µM
CC(=N)N(C)c1ccc(C(=O)Nc2ccc(Cl)cc2C(=O)Nc2ccc(Cl)cn2)c(F)c1 [Example 12] | 1 nM | 0.09 µM
CC(=N)N(C)c1ccc(C(=O)Nc2ccccc2C(=O)Nc2ccc(Cl)cn2)cc1 [Example 1, N-(5-chloropyridine-2-yl)-2-[(4-ethaneimidoyl-methylaminophenylcarbonyl)amino]benzamide] | 2 nM | –
CNC(=O)N(C)c1ccc(C(=O)Nc2ccc(C)cc2C(=O)Nc2ccc(Cl)cn2)cc1 [Example 18] | 0.15 nM | 3.0 µM
CNC(=O)N(C)c1ccc(C(=O)Nc2ccc(C)cc2C(=O)Nc2ccc(Cl)cn2)c(OCCCN)c1 [Example 19] | 0.2 nM | 1.0 µM
CC(=N)N(C)c1ccc(C(=O)Nc2ccc(C)cc2C(=O)Nc2ccc(Cl)cn2)c(F)c1 [Example 11] | 0.8 nM | 0.09 µM
CC(=N)N(C)c1ccc(C(=O)Nc2ccc(Cl)cc2C(=O)Nc2ccc(Cl)cn2)c(OCCCN)c1 [Example 7, N-(5-chloropyridine-2-yl)-2-[4-(ethaneimidoylmethylamino)-2-(3-aminopropoxy)phenylcarbonylamino]-5-chlorobenzamide] | 0.5 nM | –
CC(=N)N(C)c1ccc(C(=O)Nc2ccc(C)cc2C(=O)Nc2ccc(Cl)cn2)c(OCCCN)c1 [Example 6] | 0.5 nM | 0.2 µM
CC(=N)N(C)c1cc(F)c(C(=O)Nc2ccc(Cl)cc2C(=O)Nc2ccc(Cl)cn2)c(OCCCN)c1 [Example 10, N-(5-chloropyridine-2-yl)-2-[2-(3-aminopropoxy)-6-fluoro-4(ethaneamidoylmethylamino)phenylcarbonylamino]-5-chlorobenzamide] | 0.4 nM | 0.15 µM
COC(=N)N(C)c1ccc(C(=O)Nc2ccc(C)cc2C(=O)Nc2ccc(Cl)cn2)cc1 [Example 14, N-(5-chloropyridine-2-yl)-2-[(4-(imino(methoxy)methyl)(methyl)aminophenylcarbonyl)amino]5-methylbenzamide] | 2 nM | –
CC(=N)N(C)c1ccc(C(=O)Nc2ccc(C)cc2C(=O)Nc2ccc(Cl)cn2)c(OCCCNC(C)=O)c1 [Example 13, N-(5-chloropyridine-2-yl)-2-[4-(ethaneimidoylmethylamino)-2-(3-(acetylamino)propoxy)phenylcarbonylamino]-5-methylbenzamide] | 0.5 nM | 1.5 µM
CNC(=N)N(C)c1ccc(C(=O)Nc2ccc(C)cc2C(=O)Nc2ccc(Cl)cn2)cc1 [Example 15] | 0.5 nM | 1.5 µM
CNC(=O)N(C)c1ccc(C(=O)Nc2ccc(Cl)cc2C(=O)Nc2ccc(Cl)cn2)cc1 [Example 17, N-(5-chloropyridine-2-yl)-2-[(4-methyl(methylcarbamoyl)aminophenylcarbonyl)amino]-5-chlorobenzamide] | 0.15 nM | –
CNC(=N)N(C)c1ccc(C(=O)Nc2ccc(Cl)cc2C(=O)Nc2ccc(Cl)cn2)cc1 [Example 16] | 0.5 nM | 1.5 µM
CC(=N)N(C)c1ccc(C(=O)Nc2ccccc2C(=O)Nc2ccc(Cl)cn2)c(OCCCN)c1 [Example 5, N-(5-chloropyridine-2-yl)-2-[4-(ethaneimidoylmethylamino)-2-(3-aminopropoxy)phenylcarbonyl-amino]benzamide] | 0.5 nM | 0.2 µM
CC(=N)N(C)c1ccc(C(=O)Nc2ccc(Cl)cc2C(=O)Nc2ccc(Cl)cn2)cc1 [Example 3, N-(5-chloropyridine-2-yl)-2-[(4-ethaneimidoyl-methyl-aminophenylcarbonyl)amino]-5-chlorobenzamide] | 0.3 nM | –
